Experimental data reported in PMC8330742, “New benzothieno[2,3-c]pyridines as non-steroidal CYP17 inhibitors: design, synthesis, anticancer screening, apoptosis induction, and in silico ADME profile studies” (Journal of Enzyme Inhibition and Medicinal Chemistry, 2021).

Legend:
NCI-H460 = test: NCI-60 SRB screen; type: cell-based, human; conditions: Homo sapiens; NCI-H460; single dose 10^−5 M; read-out: Growth inhibition (%)
EKVX = test: NCI-60 SRB screen; type: cell-based, human; conditions: Homo sapiens, single dose 10^−5 M, read-out: Growth inhibition (%)
NCI-H522 = test: NCI-60 SRB screen; type: cell-based, human; conditions: Homo sapiens; NCI-H522; single dose 10^−5 M; read-out: Growth inhibition (%)
LOX IMVI = test: NCI-60 SRB screen; type: cell-based, human; conditions: Homo sapiens, single dose 10^−5 M, read-out: Growth inhibition (%)
SK-MEL-28 = test: NCI-60 SRB screen; type: cell-based; conditions: Homo sapiens; SK-MEL-28; single dose 10^−5 M; read-out: Growth inhibition (%)
RXF 393 = test: NCI-60 SRB screen; type: cell-based, human; conditions: Homo sapiens; RXF 393; single dose 10^−5 M; read-out: Growth inhibition (%)
COLO 205 = test: NCI-60 SRB screen; type: cell-based, human; conditions: Homo sapiens; COLO 205; single dose 10^−5 M; read-out: Growth inhibition (%)
SW-620 = test: NCI-60 SRB screen; type: cell-based; conditions: Homo sapiens; SW-620; single dose 10^−5 M; read-out: Growth inhibition (%)
UO-31 = test: NCI-60 SRB screen; type: cell-based, human; conditions: Homo sapiens; UO-31; single dose 10^−5 M; read-out: Growth inhibition (%)
SK-MEL-5 = test: NCI-60 SRB screen; type: cell-based, human; conditions: Homo sapiens; SK-MEL-5; single dose 10^−5 M; read-out: Growth inhibition (%)
HCC-2998 = test: NCI-60 SRB screen; type: cell-based, human; conditions: Homo sapiens; HCC-2998; single dose 10^−5 M; read-out: Growth inhibition (%)
CCRF-CEM = test: NCI-60 SRB screen; type: cell-based; conditions: Homo sapiens, single dose 10^−5 M, read-out: Growth inhibition (%)
OVCAR-8 = test: NCI-60 SRB screen; type: cell-based, human; conditions: Homo sapiens; OVCAR-8; single dose 10^−5 M; read-out: Growth inhibition (%)
OVCAR-4 = test: NCI-60 SRB screen; type: cell-based, human; conditions: Homo sapiens; OVCAR-4; single dose 10^−5 M; read-out: Growth inhibition (%)
CAKI-1 = test: NCI-60 SRB screen; type: cell-based, human; conditions: Homo sapiens; CAKI-1; single dose 10^−5 M; read-out: Growth inhibition (%)
NCI-H226 = test: NCI-60 SRB screen; type: cell-based, human; conditions: Homo sapiens; NCI-H226; single dose 10^−5 M; read-out: Growth inhibition (%)
[1] = system: panel of 60 cancer cell lines; test: NCI-60 SRB screen, mean or range over the panel; type: cell-based, human; conditions: Homo sapiens; mean over the cell lines; single dose 10^−5 M; read-out: Mean growth inhibition (%)
MDA-MB-435 = test: NCI-60 SRB screen; type: cell-based; conditions: Homo sapiens, MDA-MB-435, read-out: Growth inhibition (%)
SF-295 = test: NCI-60 SRB screen; type: cell-based, human; conditions: Homo sapiens; SF-295; single dose 10^−5 M; read-out: Growth inhibition (%)
NCI/ADR-RES = test: NCI-60 SRB screen; type: cell-based, human; conditions: Homo sapiens, single dose 10^−5 M, read-out: Growth inhibition (%)
HL-60(TB) = test: NCI-60 SRB screen; type: cell-based, human; conditions: Homo sapiens; HL-60 (TB); single dose 10^−5 M; read-out: Growth inhibition (%)
IGROV1 = test: NCI-60 SRB screen; type: cell-based, human; conditions: Homo sapiens, IGROV-1; IGROV1; single dose 10^−5 M; read-out: Growth inhibition (%)
UACC-257 = test: NCI-60 SRB screen; type: cell-based, human; conditions: Homo sapiens, UACC-257; UACC-275 (so in the source); single dose 10^−5 M; read-out: Growth inhibition (%)
MOLT-4 = test: NCI-60 SRB screen; type: cell-based; conditions: Homo sapiens; MOLT-4; single dose 10^−5 M; read-out: Growth inhibition (%)
HOP-92 = test: NCI-60 SRB screen; type: cell-based, human; conditions: Homo sapiens; HOP-92; single dose 10^−5 M; read-out: Growth inhibition (%)
HOP-62 = test: NCI-60 SRB screen; type: cell-based, human; conditions: Homo sapiens; HOP-62; single dose 10^−5 M; read-out: Growth inhibition (%)
SK-OV-3 = test: NCI-60 SRB screen; type: cell-based, human; conditions: Homo sapiens; SK-OV-3; single dose 10^−5 M; read-out: Growth inhibition (%)
NCI-H23 = test: NCI-60 SRB screen; type: cell-based, human; conditions: Homo sapiens; NCI-H23; single dose 10^−5 M; read-out: Growth inhibition (%)
K-562 = test: NCI-60 SRB screen; type: cell-based, human; conditions: Homo sapiens, K562; K-562; single dose 10^−5 M; read-out: Growth inhibition (%)
A549/ATCC = test: NCI-60 SRB screen; type: cell-based, human; conditions: Homo sapiens, single dose 10^−5 M, read-out: Growth inhibition (%)
786-0 = test: NCI-60 SRB screen; type: cell-based; conditions: Homo sapiens; 786-0; single dose 10^−5 M; read-out: Growth inhibition (%)
NCI-H322M = test: NCI-60 SRB screen; type: cell-based, human; conditions: Homo sapiens, single dose 10^−5 M, read-out: Growth inhibition (%)
HCT-15 = test: NCI-60 SRB screen; type: cell-based, human; conditions: Homo sapiens; HCT-15; single dose 10^−5 M; read-out: Growth inhibition (%)
UACC-62 = test: NCI-60 SRB screen; type: cell-based, human; conditions: Homo sapiens; UACC-62; single dose 10^−5 M; read-out: Growth inhibition (%)
OVCAR-3 = test: NCI-60 SRB screen; type: cell-based, human; conditions: Homo sapiens; OVCAR-3; single dose 10^−5 M; read-out: Growth inhibition (%)
TK-10 = test: NCI-60 SRB screen; type: cell-based, human; conditions: Homo sapiens; TK-10; single dose 10^−5 M; read-out: Growth inhibition (%)
KM12 = test: NCI-60 SRB screen; type: cell-based, human; conditions: Homo sapiens; KM12; single dose 10^−5 M; read-out: Growth inhibition (%)
ACHN = test: NCI-60 SRB screen; type: cell-based; conditions: Homo sapiens, single dose 10^−5 M, read-out: Growth inhibition (%)
SF-268 = test: NCI-60 SRB screen; type: cell-based, human; conditions: Homo sapiens; SF-268; single dose 10^−5 M; read-out: Growth inhibition (%)
HCT-116 = test: NCI-60 SRB screen; type: cell-based, human; conditions: Homo sapiens; HCT-116; single dose 10^−5 M; read-out: Growth inhibition (%)
SN12C = test: NCI-60 SRB screen; type: cell-based, human; conditions: Homo sapiens, SN12C; SN 12 C; single dose 10^−5 M; read-out: Growth inhibition (%)
SR = test: NCI-60 SRB screen; type: cell-based; conditions: Homo sapiens, single dose 10^−5 M, read-out: Growth inhibition (%)
M14 = test: NCI-60 SRB screen; type: cell-based, human; conditions: Homo sapiens; M14; single dose 10^−5 M; read-out: Growth inhibition (%)
SK-MEL-2 = test: NCI-60 SRB screen; type: cell-based, human; conditions: Homo sapiens; SK-MEL-2; single dose 10^−5 M; read-out: Growth inhibition (%)

Question: With `N#CC1C(=O)NC(c2cccc([N+](=O)[O-])c2)c2sc3c(F)cccc3c21` (centres unmarked) [Compound 5d, 4-Cyano-8-fluoro-1-(3-nitrophenyl)-1,2-dihydro[1]benzothieno[2,3-c] pyridin-3(4H)-one] as the compound, how does the inhibition at 10 µM (NCI-H460) read?
Answer: 18.1%

Question: And the inhibition at 10 µM (EKVX)?
Answer: 11.5%

Question: And the inhibition at 10 µM (NCI-H522)?
Answer: 22.4%

Question: And the inhibition at 10 µM (LOX IMVI)?
Answer: 17.4%

Question: What about the inhibition at 10 µM (SK-MEL-28) of the same compound?
Answer: -21.6%

Question: And the inhibition at 10 µM (RXF 393)?
Answer: -7.73%

Question: What about the inhibition at 10 µM (COLO 205) of the same compound?
Answer: -14.8%

Question: And the inhibition at 10 µM (SW-620)?
Answer: 7.44%

Question: What about the inhibition at 10 µM (UO-31) of the same compound?
Answer: 41.3%

Question: And the inhibition at 10 µM (SK-MEL-5)?
Answer: 4.83%

Question: And the inhibition at 10 µM (HCC-2998)?
Answer: -14.2%

Question: And the inhibition at 10 µM (CCRF-CEM)?
Answer: -0.08%

Question: And the inhibition at 10 µM (OVCAR-8)?
Answer: 5.37%

Question: What about the inhibition at 10 µM (OVCAR-4) of the same compound?
Answer: 9.55%

Question: And the inhibition at 10 µM (CAKI-1)?
Answer: 14.4%

Question: What about the inhibition at 10 µM (NCI-H226) of the same compound?
Answer: 3.95%

Question: And the inhibition at 10 µM [1]?
Answer: 5%

Question: And the inhibition at 10 µM (MDA-MB-435)?
Answer: -6.69%

Question: And the inhibition at 10 µM (SF-295)?
Answer: 1.95%

Question: And the inhibition at 10 µM (NCI/ADR-RES)?
Answer: 2.18%

Question: And the inhibition at 10 µM (HL-60(TB))?
Answer: -0.44%

Question: What about the inhibition at 10 µM (IGROV1) of the same compound?
Answer: 36.6%

Question: And the inhibition at 10 µM (UACC-257)?
Answer: -19%

Question: And the inhibition at 10 µM (MOLT-4)?
Answer: 18.9%

Question: What about the inhibition at 10 µM (HOP-92) of the same compound?
Answer: 17.2%

Question: What about the inhibition at 10 µM (HOP-62) of the same compound?
Answer: 21.4%

Question: What about the inhibition at 10 µM (SK-OV-3) of the same compound?
Answer: -0.9%

Question: What about the inhibition at 10 µM (NCI-H23) of the same compound?
Answer: -0.19%

Question: What about the inhibition at 10 µM (K-562) of the same compound?
Answer: 8.17%

Question: And the inhibition at 10 µM (A549/ATCC)?
Answer: -6.53%

Question: And the inhibition at 10 µM (786-0)?
Answer: -6.8%

Question: And the inhibition at 10 µM (NCI-H322M)?
Answer: 4.25%

Question: What about the inhibition at 10 µM (HCT-15) of the same compound?
Answer: 0.05%

Question: And the inhibition at 10 µM (UACC-62)?
Answer: 12.2%

Question: And the inhibition at 10 µM (OVCAR-3)?
Answer: 9.36%

Question: And the inhibition at 10 µM (TK-10)?
Answer: -58.3%

Question: What about the inhibition at 10 µM (KM12) of the same compound?
Answer: 5.7%

Question: And the inhibition at 10 µM (ACHN)?
Answer: 13.5%

Question: What about the inhibition at 10 µM (SF-268) of the same compound?
Answer: 16.4%

Question: What about the inhibition at 10 µM (HCT-116) of the same compound?
Answer: 7.78%

Question: And the inhibition at 10 µM (SN12C)?
Answer: 5.16%

Question: And the inhibition at 10 µM (SR)?
Answer: 17.3%

Question: What about the inhibition at 10 µM (M14) of the same compound?
Answer: -8.86%

Question: What about the inhibition at 10 µM (SK-MEL-2) of the same compound?
Answer: -13.1%
